Tested on: P. methanolica cells (strain CBS6515, UV-mutagenized)
Test: Nystatin enrichment for auxotrophic mutants; titering of nystatin-treated versus control cells for colony forming units
Type: cell-based, Pichia methanolica
Conditions: 1 mg nystatin added to the remainder of a 500 ml culture in minimal broth with 5 g/L ammonium sulfate, incubated 1 hour with shaking
Method: Large-scale mutagenesis was then carried out using a 2-second UV exposure to provide about 20% killing. Cells were plated at approximately 10^4 cells/plate onto eight YEPD plates that were supplemented with 100 mg/L each of uracil, adenine, and leucine, which were added to supplement the growth of potential auxotrophs having the cognate deficiencies. Following UV exposure the plates were wrapped in foil and incubated overnight at 30° C. The following day the colonies on the plates (^~ 10^5 total) were resuspended in water and washed once with water. An amount of cell suspension sufficient to give an OD600 of 0.1-0.2 was used to inoculate 500 ml of minimal broth made with yeast nitrogen base without amino acids or ammonia, supplemented with 1% glucose and 400 μg/L biotin. The culture was placed in a 2.8 L baffled Bell flask and shaken vigorously overnight at 30° C. The following day the cells had reached an OD600 of ^~ 1.0-2.0. The cells were pelleted and resuspended in 500 ml of minimal broth supplemented with 5 g/L ammonium sulfate. The cell suspension was placed in a 2.8 L baffled Bell flask and shaken vigorously at 30° C. for 6 hours. 50 ml of the culture was set aside in a 250-ml flask as a control, and to the remainder of the culture was added 1 mg nystatin (Sigma Chemical Co., St. Louis, Mo.) to select for auxotrophic mutants (Snow, Nature 211:206-207, 1966). […]

C[C@@H]1[C@H](O)[C@@H](C)/C=C/C=C/CC/C=C/C=C/C=C/C=C/C(O[C@H]2O[C@H](C)[C@@H](O)[C@H](N)[C@@H]2O)CC2O[C@](O)(CC(O)C(O)CCC(O)CC(O)CC(O)CC(=O)O[C@H]1C)CC(O)C2C(=O)O (stereo partly shown) [nystatin] was tested, and the “decrease in the number of viable cells (colony forming units), factor versus control cells” value was 10^4.

— patent US6183953A, “Chromosomal mutagenesis in Pichia methanolica” (ZymoGenetics, Inc., priority 1997, dated 2001)
